Assays:
resistance (R) level = experiment: Connectivity map drug screen: effect of each drug on resistance level; assay type: cell-based; conditions: for effect on resistance: connectivity map drug screen, at least 6 cell lines of different tissues; for Effect on resistance level: t-test, positive/negative sign = increasing/decreasing level following drug treatment
Source text: (§1) Using the drug screen of the connectivity map [Aravind Subramanian et al., Cell 171 (6): 1437-1452 (2017)], the effect of each drug on resistance and tolerance was next analyzed in at least 6 cell lines of different tissues. Identification of multiple drugs that display an effect on resistance/tolerance-related diseases allows (i) repurposing of drugs, and (ii) personalized prioritization of drugs. For instance, the screen tested three P glycoprotein inhibitors: zosuquidar, elacridar, and dofequidar. […] Thus, for specific disease in which P glycoprotein inhibitor is required, it is possible to prioritize drugs for each patient based on its baseline combination of resistance and tolerance state.

[1] = tested on: disease tolerance (T) level; experiment: Connectivity map drug screen: effect of each drug on tolerance level; assay type: cell-based; conditions: for effect on tolerance: connectivity map drug screen, at least 6 cell lines of different tissues, all tissues under study; for Effect on tolerance level: t-test, positive/negative sign = increasing/decreasing level following drug treatment
Source text: as §1

SMILES	effect on resistance (resistance (R) level)	Effect on resistance level (resistance (R) level; tissue: breast) [signed −log p-values]	Effect on resistance level (resistance (R) level; tissue: kidney) [signed −log p-values]	Effect on resistance level (resistance (R) level; tissue: large intestine) [signed −log p-values]	Effect on resistance level (resistance (R) level; tissue: pancreas) [signed −log p-values]	Effect on resistance level (resistance (R) level; tissue: prostate) [signed −log p-values]	Effect on resistance level (resistance (R) level; tissue: skin) [signed −log p-values]	effect on tolerance [1]	Effect on tolerance level ([1]; tissue: breast) [signed −log p-values]	Effect on tolerance level ([1]; tissue: kidney) [signed −log p-values]	Effect on tolerance level ([1]; tissue: large intestine) [signed −log p-values]	Effect on tolerance level ([1]; tissue: pancreas) [signed −log p-values]	Effect on tolerance level ([1]; tissue: prostate) [signed −log p-values]	Effect on tolerance level ([1]; tissue: skin) [signed −log p-values]
O=C(C(c1ccccc1)c1ccccc1)N1CCN(CC(O)COc2cccc3ncccc23)CC1 (stereo not shown) [dofequidar]	increasing resistance	0.89	7.33	9.14	5.84	3.47	9.17	increased tolerance	6.29	2.40	6.03	2.60	1.54	0.89
COc1cc2c(cc1OC)CN(CCc1ccc(NC(=O)c3cccc4c(=O)c5cccc(OC)c5[nH]c34)cc1)CC2 [elacridar]	increasing resistance	7.26	6.87	10.56	2.33	4.37	4.66	increased tolerance	1.84	8.48	13.47	−0.10	−1.43	2.77
O[C@@H](COc1cccc2ncccc12)CN1CCN([C@@H]2c3ccccc3[C@@H]3[C@H](c4ccccc42)C3(F)F)CC1 [zosuquidar]	–	0.13	−2.54	−7.65	−2.82	−2.05	−6.00	–	11.19	5.15	5.89	5.81	5.97	2.91

From US20240353397A1, “MARKERS OF RESISTANCE AND DISEASE TOLERANCE AND USES THEREOF” (priority 2021, published 2024)
